T1: AGBL2 (Homo sapiens, UniProt Q5U5Z8)
T1 construct: His (N); made in house; protein recovered from inclusion bodies
T1 sequence (Q5U5Z8 1-902): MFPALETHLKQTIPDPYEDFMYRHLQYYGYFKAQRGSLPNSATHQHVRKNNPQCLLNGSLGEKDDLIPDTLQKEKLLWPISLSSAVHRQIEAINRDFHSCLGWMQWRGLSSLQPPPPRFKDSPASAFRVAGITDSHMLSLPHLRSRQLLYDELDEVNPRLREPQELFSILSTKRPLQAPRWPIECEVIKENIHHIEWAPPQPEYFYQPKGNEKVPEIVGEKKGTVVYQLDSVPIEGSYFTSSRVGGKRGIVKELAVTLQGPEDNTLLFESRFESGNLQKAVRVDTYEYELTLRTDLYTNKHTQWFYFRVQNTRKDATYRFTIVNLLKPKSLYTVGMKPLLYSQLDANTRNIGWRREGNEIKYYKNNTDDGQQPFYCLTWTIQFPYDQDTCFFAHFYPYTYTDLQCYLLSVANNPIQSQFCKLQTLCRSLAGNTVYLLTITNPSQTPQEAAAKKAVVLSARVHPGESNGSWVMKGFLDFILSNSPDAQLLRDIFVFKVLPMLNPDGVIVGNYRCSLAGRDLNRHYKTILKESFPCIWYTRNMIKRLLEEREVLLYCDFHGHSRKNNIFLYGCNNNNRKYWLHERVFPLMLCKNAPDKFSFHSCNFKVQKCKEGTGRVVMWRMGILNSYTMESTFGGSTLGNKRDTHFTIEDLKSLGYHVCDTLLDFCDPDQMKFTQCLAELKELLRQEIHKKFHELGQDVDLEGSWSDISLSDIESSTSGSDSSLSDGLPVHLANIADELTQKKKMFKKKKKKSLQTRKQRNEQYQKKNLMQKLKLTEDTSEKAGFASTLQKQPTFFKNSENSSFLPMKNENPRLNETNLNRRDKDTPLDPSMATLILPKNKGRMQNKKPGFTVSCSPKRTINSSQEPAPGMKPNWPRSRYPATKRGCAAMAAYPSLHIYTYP

B1: RARRES1: recombinant N-His RARRES1 protein (MW ~31 kDa) obtained from inclusion bodies (protein, UniProt P49788 1-294, looked up)
Retinoic acid receptor …: MQPRRQRLPAPWSGPRGPRPTAPLLALLLLLAPVAAPAGSGDPDDPGQPQDAGVPRRLLQQAARAALHFFNFRSGSPSALRVLAEVQEGRAWINPKEGCKVHVVFSTERYNPESLLQEGEGRLGKCSARVFFKNQKPRPTINVTCTRLIEKKKRQQEDYLLYKQMKQLKNPLEIVSIPDNHGHIDPSLRLIWDLAFLGSSYVMWEMTTQVSHYYLAQLTSVRQWKTNDDTIDFDYTVLLHELSTQEIIPCRIHLVWYPGKPLKVKYHCQELQTPEEASGTEEGSAVVPTELSNF
modifications: N-terminal His tag
notes: recombinant N-His RARRES1 protein (MW ~31 kDa) obtained from inclusion bodies

One test has as its target T1, AGBL2. The test can be described thus: Enzyme inhibition kinetic assay (fluorometric, release of tyrosine from hydroxycoumarin-conjugated tubulin CTT substrate). Particulars: 1 nM recombinant AGBL2; substrate 1 μM; 25° C., pH 7.5; apparent Ki fitted to Morrison equation for tight-binding inhibitors. Format: biochemical. The source says: Fluorescence Resonance Energy Transfer (FRET) principle can be applied to generate real-time enzymatic activity data. The tyrosinated C-terminal tail of tubulin has a tyrosine at the C-terminal. Tyrosines absorb at 270 nm and emit in the 280 to 350 nm range with a λMax=303 nm. Adding a hydroxycoumarin that absorbs in the range of 300 to 350 nm to the N-terminal of the CTT of tubulin (see FIG. 5) allows the quenching of the tyrosine emission that can be monitored at 303 nm. Emissions at 303 nm can be detected after the cleavage of the tyrosine residue since the latter will follow a Brownian motion and become physical situated far from the quencher (Hydroxycoumarin). Assays can be performed at 25° C. in 10 mM CaCl2, 0.2 M NaCl, and 0.05% Brij-35 in 50 mM HEPES, pH 7.5, over a substrate concentration range of […] and an enzyme concentration range of 0.1-50 nM. An exemplary assay was performed by incubating 186 μL of buffer solution, 4 μL of substrate solution, and then adding 10 μL of AGBL2 solution. The mixture was then incubated for 15 to 120 minutes at 25° C.
Kinetic assays of the inhibition of AGBL2 were carried out using the substrate described in Example 4 to measure inhibition constants. Enzymatic assays were performed at 25° C. in 50 mM HEPES buffer at pH 7.5 in the presence of 10 mM CaCl2, 0.2 M NaCl, and 0.01% or 0.05% Brij-35 with substrate concentrations of 1 μM. The release of tyrosine was monitored by measuring fluorescence (excitation and emission wavelengths of 270 nm and 303 nm, respectively). The compounds tested as inhibitors included compound Sd-1, compound Sd-2, compound Sd-3, and compound Sd-4. All stock solutions of inhibitors were in methanol. For inhibition assays, 10 μL of inhibitor stock solution, 176 μL of assay buffer, and 10 μL of enzyme stock solution were mixed and incubated for 30 to 60 minutes prior to initiation of the assay, which was accomplished by adding and mixing 4 μL of substrate stock solution. Enzyme concentrations ranged from 0.2 to 7 nM during the assay. Apparent inhibition constant (Ki^app) values were calculated by fitting the kinetics data to the Morrison equation for tight-binding inhibitors, where vi and vo are the initial rates with and without inhibitor, respectively, and [E]o and [I]o are the initial (total) enzyme and inhibitor concentrations, respectively. The Ki values of the four tested compounds and of recombinant RARRES1, all including 1 nM of recombinant AGBL2) are shown in Table 1.
Take `CC(C)c1ccc(Sc2ccc(F)cc2CC(=O)O)cc1` [Sd-3]: the Ki is 428 nM. Consider `Cc1cc(C(F)(F)F)cnc1CC(=O)O` [Sd-2], for which the Ki turned out to be 87 nM. Same read-out and setting: the figure for `Cc1cc(F)cnc1CC(=O)O` [Sd-1] is 173 nM; for `O=C(O)Cc1cccc(C(=O)Nc2ccc3c(c2)OCO3)c1` [Sd-4] it is 4.89 nM.

As for B1, the Ki was found to be 27 nM.

For the next test, the target named is T1, AGBL2. The test can be described thus: High throughput enzyme kinetic (FRET) assay, saturation curves in the presence of inhibitor. The following applies: AGBL2 1 nM; Sd-4 at 1 nM, 5 nM and 10 nM; substrate 0 to 3 μM. The class given is biochemical. The source says:
Fluorescence Resonance Energy Transfer (FRET) principle can be applied to generate real-time enzymatic activity data. The tyrosinated C-terminal tail of tubulin has a tyrosine at the C-terminal. Tyrosines absorb at 270 nm and emit in the 280 to 350 nm range with a λMax=303 nm. Adding a hydroxycoumarin that absorbs in the range of 300 to 350 nm to the N-terminal of the CTT of tubulin (see FIG. 5) allows the quenching of the tyrosine emission that can be monitored at 303 nm. Emissions at 303 nm can be detected after the cleavage of the tyrosine residue since the latter will follow a Brownian motion and become physical situated far from the quencher (Hydroxycoumarin). […]
The reaction rate can be analyzed using different substrate concentrations and the saturation curve can be drawn. The maximum reaction rate (Vmax) and the substrate concentration at half the Vmax referred to as the Michaelis-Menten constant (KM) can be determined from the saturation curve. Inhibitors can also be analyzed and a saturation curve in the presence of inhibitor can be drawn. The reaction rate was analyzed using substrate concentrations over a range of 0 to 3 μM. […] The dissociation constant of the inhibitor (Ki) can be calculated using the following equation: Ki=[Inhibitor]/((KM,obs/KM)−1.0).
`O=C(O)Cc1cccc(C(=O)Nc2ccc3c(c2)OCO3)c1` [Sd-4]: the “inhibition of AGBL2 activity at varying substrate concentrations (FIG. 6)” value is listed as “inhibition of AGBL2 activity”.

The record behind these values is patent US9199918B2, “Small molecule inhibitors of AGBL2” (Georgetown University, priority 2011, dated 2015).
